The values that follow are results of earlier work, collected in PubChem BioAssay AID1259409 (Chemical Carcinogenesis Research Information System (CCRIS), 2018).

For the data set, the system named is rodent chemically induced tumor inhibition, incidence and multiplicity. The experiment in a line: CCRIS tumor inhibitor studies. To be noted: 3817-11-6, Dose [Inhibitor]: 0, Promoter: NONE USED.

“And” between values parts separate entries of the source, which are not always exact repeats. Equal entries are not always repeated.

`CC[C@H](C)[C@@H](NC(=O)[C@@H](CCC(=O)O)NC(=O)[C@@H](CO)NC(=O)[C@@H](CO)NC(=O)[C@H](NC(=O)[C@@H](CC(=O)O)NC(=O)[C@H](NC(=O)[C@H](C)NC(=O)[C@H](C)NC(=O)[C@@H](CC(=O)O)NC(=O)[C@@H](CO)NC(=O)[C@H](N)CS)C(C)C)C(C)C)C(=O)N[C@@H](C(=O)N[C@@H](C(=O)N[C@H](CCCCN)C(=O)N[C@H](CC(=O)O)C(=O)N[C@H](CC(C)C)C(=O)N[C@H](CCCCN)C(=O)N[C@H](CCC(=O)O)C(=O)N[C@H](CCCCN)C(=O)N[C@H](CCCCN)C(=O)N[C@H](CCC(=O)O)C(=O)N[C@@H](C(=O)N[C@@H](C(=O)N[C@H](CCC(=O)O)C(=O)N[C@H](CCC(=O)O)C(=O)N[C@@H](C)C(=O)N[C@H](CCC(=O)O)C(=O)O)C(C)C)C(C)C)C(C)C)[C@H](C)O`: the “tumour outcome (control, treated, inhibition, significance)” value reads like this: (Carcinogen: N-BUTYL-N-(4-HYDROXYBUTYL)NITROSAMINE, 30 UG THYMOSIN FRACTION 5 IN 100 µL SALINE INJECTED INTO RIGHT THIGH 2/WK FOR 20 WK (STUDY DURATION: 20 WK), Route [Inhibitor]: INTRAMUSCULAR, Species: MOUSE, Strain/Sex: C3H/HEJ/FEMALE, Target Tissue: Type of Lesion: BLADDER: CARCINOMA, Dose [Carcinogen]: 0.05% (W/V) SOLUTION IN DRINKING WATER WITH 0.001% (W/V) TWEEN 80 FOR 20 WK) 6/11 (55%), 2/11 (18%), 67%, not significant; (Carcinogen: N-BUTYL-N-(4-HYDROXYBUTYL)NITROSAMINE, 30 UG THYMOSIN FRACTION 5 IN 100 µL SALINE INJECTED INTO RIGHT THIGH 2/WK FOR 25 WK (STUDY DURATION: 25 WK), Route [Inhibitor]: INTRAMUSCULAR, Species: MOUSE, Strain/Sex: C3H/HEJ/FEMALE, Target Tissue: Type of Lesion: BLADDER: CARCINOMA, Dose [Carcinogen]: 0.05% (W/V) SOLUTION IN DRINKING WATER WITH 0.001% (W/V) TWEEN 80 FOR 25 WK) 9/16 (56%), 8/13 (62%), -11%, not significant; (Carcinogen: N-BUTYL-N-(4-HYDROXYBUTYL)NITROSAMINE, 600 UG THYMOSIN FRACTION 5 2/WK FOR 12 WK BEGINNING POST CARCINOGEN TREATMENT (STUDY DURATION: 20 WK), Route [Inhibitor]: SUBCUTANEOUS, Species: MOUSE, Strain/Sex: NON/SHI/MALE, Target Tissue: Type of Lesion: RENAL PELVIS: CARCINOMA, Dose [Carcinogen]: 0.05% IN DRINKING WATER FOR 8 WK) 3/31 (10%), 5/32 (16%), -60%, not significant and 7/29 (24%), 7/29 (24%), 0%, not significant; (Carcinogen: N-BUTYL-N-(4-HYDROXYBUTYL)NITROSAMINE, 600 UG THYMOSIN FRACTION 5 2/WK FOR 12 WK BEGINNING POST CARCINOGEN TREATMENT (STUDY DURATION: 20 WK), Route [Inhibitor]: SUBCUTANEOUS, Species: MOUSE, Strain/Sex: NON/SHI/MALE, Target Tissue: Type of Lesion: URINARY BLADDER: CARCINOMA, Dose [Carcinogen]: 0.05% IN DRINKING WATER FOR 8 WK) 25/31 (81%), 15/32 (47%), 42%, p<0.01 and 19/29 (66%), 23/29 (79%), -20%, not significant; (Carcinogen: N-BUTYL-N-(4-HYDROXYBUTYL)NITROSAMINE, 600 UG THYMOSIN FRACTION 5 IN 100 µL SALINE INJECTED INTO RIGHT THIGH 2/WK FOR 30 WK (STUDY DURATION: 30 WK), Route [Inhibitor]: INTRAMUSCULAR, Species: RAT, Strain/Sex: WISTAR/FEMALE, Target Tissue: Type of Lesion: BLADDER: CARCINOMA, Dose [Carcinogen]: 0.025% (W/V) SOLUTION IN DRINKING WATER WITH 0.0005% (W/V) TWEEN 80 FOR 30 WK) 9/11 (82%), 2/11 (18%), 78%, p<0.05; (Carcinogen: PHENACETIN, 62-44-2, N-BUTYL-N-(4-HYDROXYBUTYL)NITROSAMINE, Carcinogen: PHENACETIN, 62-44-2, N-BUTYL-N-(4-HYDROXYBUTYL)NITROSAMINE, 60 UG IN 0.1 ML SALINE 2/WK FOR 6 WK CONCURRENTLY WITH BBN TREATMENT (STUDY DURATION: 30 WK), Route [Inhibitor]: SUBCUTANEOUS, Species: MOUSE, Strain/Sex: NON/SHI/MALE, Target Tissue: Type of Lesion: RENAL PELVIS: CARCINOMA, Dose [Carcinogen]: 2% PHENACETIN IN DIET FOR 8 WK FOLLOWED BY 0.05% BBN IN DRINKING WATER FOR 6 WK) 2/11 (18%), 5/11 (45%), -150%, not significant. For the same compound, the “tumour outcome (control, treated, inhibition, significance)” value by setting is: (Carcinogen: PHENACETIN, 62-44-2, N-BUTYL-N-(4-HYDROXYBUTYL)NITROSAMINE, Carcinogen: PHENACETIN, 62-44-2, N-BUTYL-N-(4-HYDROXYBUTYL)NITROSAMINE, 60 UG IN 0.1 ML SALINE 2/WK FOR 6 WK CONCURRENTLY WITH BBN TREATMENT (STUDY DURATION: 30 WK), Route [Inhibitor]: SUBCUTANEOUS, Species: MOUSE, Strain/Sex: NON/SHI/MALE, Target Tissue: Type of Lesion: URINARY BLADDER: CARCINOMA, Dose [Carcinogen]: 2% PHENACETIN IN DIET FOR 8 WK FOLLOWED BY 0.05% BBN IN DRINKING WATER FOR 6 WK) 2/11 (18%), 2/11 (18%), 0%, not significant; (Carcinogen: PHENACETIN, 62-44-2, N-BUTYL-N-(4-HYDROXYBUTYL)NITROSAMINE, Carcinogen: PHENACETIN, 62-44-2, N-BUTYL-N-(4-HYDROXYBUTYL)NITROSAMINE, 60 UG IN 0.1 ML SALINE 2/WK FOR 6 WK CONCURRENTLY WITH BBN TREATMENT (STUDY DURATION: 34 WK), Route [Inhibitor]: SUBCUTANEOUS, Species: MOUSE, Strain/Sex: NON/SHI/MALE, Target Tissue: Type of Lesion: RENAL PELVIS: CARCINOMA, Dose [Carcinogen]: 2% PHENACETIN IN DIET FOR 12 WK FOLLOWED BY 0.05% BBN IN DRINKING WATER FOR 6 WK) 9/20 (45%), 12/19 (63%), -40%, not significant.
